From PMC10424183, “Determination of Ligand-Binding Affinity (Kd) Using Transverse Relaxation Rate (R2) in the Ligand-Observed ^1H NMR Experiment and Applications to Fragment-Based Drug Discovery” (Journal of Medicinal Chemistry, 2023)
pIC50, pKd, pKi: −log10 of the molar value. Like-named read-outs stand apart in the source and are kept apart here.

Assays:
CRBN/DDB1 complex [1] = molecular target: T1, CRBN/DDB1 complex (Homo sapiens, UniProt Q96SW2); experiment: R2 values of fragment hits at two ligand concentrations (preliminary ranking); assay type: binding; details: 2 μM CRBN/DDB1 complex; for average R2, compound at 50 μM: 50 μM ligand; for average R2, compound at 200 μM: 200 μM ligand; for average R2, differences: R2 at 50 μM minus R2 at 200 μM
T1 construct: made in house
Method: (§1) Here, we present how we used the R2KD assay to triage fragment hits against the CRBN/DDB1 complex. The CRBN/DDB1 complex is part of the E3 ligase system, with its thalidomide-binding domain (TBD) pocket critical for recruiting its substrate protein.[20] […] The R2 values of these fragments were measured at two ligand concentrations (200 and 50 μM) against 2 μM of the CRBN/DDB1 complex. This enabled preliminary ranking of hits. The hits with larger R2 differences rank higher. […] We also determined IC50 of the top 10 fragments using a FP based biochemical assay.[17]
(§2) The T2 relaxation experiment was acquired using pulse program CPMG with 3-9-19 pulse sequence with gradients incorporated to suppress the water signal.[22] Extra water suppression was achieved by adding presaturation during D1. The spin-echo period (delay-180°-delay) was set to 1 msec (d20 is 500 μs), and the relaxation delay (d1) was set to 10 s. The pseudo-2D experiment contained nine slices with spin-echo period repeated the following times: 4, 20, 100, 200, 300, 500, 700, 1000, and 2000.

CRBN/DDB1 complex [2] = molecular target: T1, CRBN/DDB1 complex; details: known Ki from biochemical binding assay, Δ39CRBN/ΔBPBDDB1 complex; cited from earlier work
CRBN/DDB1 complex [3] = molecular target: T1, CRBN/DDB1 complex; experiment: R2KD ligand-observed 1H NMR assay (Kd from transverse relaxation rate R2); assay type: binding
Method: 10 samples were prepared: samples 1–8 containing increasing ligand concentration (maintaining constant protein concentration); sample 9 and 10 containing only ligands at two different concentrations (protein absent). These two samples served as control samples to obtain the R2 values of free ligand. The final percentage of DMSO-d6 in all samples were identical to minimize possible impacts of DMSO-d6.
as §1, §2
Nonlinear regression analysis was carried out using GraphPad Prism 9.2.0. […] Three parameters: P, α, and Kd were in the equation with the initial value set at 1. […] CIs of parameters was calculated at 95% level using Asymmetrical (Profile-likelihood) CI.

CRBN/DDB1 complex [4] = molecular target: T1, CRBN/DDB1 complex; experiment: FP based biochemical assay; assay type: binding; details: top 10 fragments
Excerpt: To determine the accuracy of Kd measured using the R2KD assay, we tested seven small molecule ligands (Figure 4) against three protein targets (BCL6, CRBN/DDB1 complex, and ERAP1) and compared their Kd values from the R2KD assay with known Ki values (Table 1) obtained in biochemical binding assays[15],[17],[18] or Kd value from the SPR binding assay.[19] We found good agreements between the Kd values and the Ki values, with most of them less than two-fold difference from those determined from biochemical or biophysical assays. […] We found the assay setup to be simple and positive controls unnecessary, making the approach suitable for new and challenging targets.
Here, we present how we used the R2KD assay to triage fragment hits against the CRBN/DDB1 complex. The CRBN/DDB1 complex is part of the E3 ligase system, with its thalidomide-binding domain (TBD) pocket critical for recruiting its substrate protein.[20] A fragment library, composed of around 1000 compounds, was screened using R2 relaxation edited ^1H-NMR experiments, with 19 fragments subsequently identified as competitive hits for the TBD pocket. The R2 values of these fragments were measured at two ligand concentrations (200 and 50 μM) against 2 μM of the CRBN/DDB1 complex. This enabled preliminary ranking of hits. The hits with larger R2 differences rank higher. […] We then measured the Kd values of the top 10 fragments using R2KD assay and confirmed the ranking order (Table 2). We also determined IC50 of the top 10 fragments using a FP based biochemical assay.[17]

[5] = fragment hit triage, top 10 fragments, read-out: R2KD assay Kd

T1 sequence (Q96SW2 40-442 limits assumed, species assumed, one chain of several): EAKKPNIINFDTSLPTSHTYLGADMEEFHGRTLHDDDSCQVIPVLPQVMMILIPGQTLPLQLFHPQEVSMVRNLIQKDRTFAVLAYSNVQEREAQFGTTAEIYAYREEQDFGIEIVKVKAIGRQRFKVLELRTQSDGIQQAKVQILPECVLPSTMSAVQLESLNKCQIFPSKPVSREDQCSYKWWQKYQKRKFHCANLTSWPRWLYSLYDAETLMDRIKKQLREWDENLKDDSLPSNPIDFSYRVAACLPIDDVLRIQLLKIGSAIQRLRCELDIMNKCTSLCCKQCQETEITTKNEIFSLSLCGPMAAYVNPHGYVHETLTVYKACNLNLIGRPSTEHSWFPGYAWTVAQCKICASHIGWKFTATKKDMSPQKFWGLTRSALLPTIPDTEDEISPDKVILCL

average R2, compound at 50 μM (CRBN/DDB1 complex [1])	average R2, compound at 200 μM (CRBN/DDB1 complex [1])	average R2, differences (CRBN/DDB1 complex [1])	pKd (CRBN/DDB1 complex [3]; R2KD assay, Δ39CRBN/ΔBPBDDB1 complex, repeated three times (average), read-out: Kd)	pKd (CRBN/DDB1 complex [3]; [5])	pIC50 (CRBN/DDB1 complex [4])	SMILES	pKi (CRBN/DDB1 complex [2])
4.9	2	2.9	3.81	3.91	3.62	Cc1ccc(N2CC(=O)NC2=O)cc1 [CCT010354]	3.53
1.6	1.5	0.1				CCOc1cccc(C2CC(=O)NC3=C2C(=O)CCC3)c1 (stereo not shown) [CCT228041]	
3.6	2.4	1.2		3.27	3.11	CCOc1ccc(C2CNC(=O)C2)cc1 (stereo not shown) [CCT239822]	
1.6	1.5	0.1				O=CN1CCN(Cc2c(F)cccc2Cl)CC1 [CCT240107]	
3.4	1.2	2.2		4.07	3.77	O=c1ccn(Cc2ccccc2)c(=O)[nH]1 [CCT240207]	
1.2	1.1	0.1				CC(=O)N1CCN(S(=O)(=O)c2ccc(C(C)C)cc2)CC1 [CCT240867]	
3.8	2.5	1.2		3.27	< 2.52	CC(=O)Nc1cc2c(cc1C(=O)C(C)C)OCCO2 [CCT242848]	
2.5	2.1	0.5		2.92	2.86	COc1cc2c(cc1OC)C(c1cccc(O)c1)CC(=O)N2 (stereo not shown) [CCT242858]	
1.6	1.3	0.3				N#CCCCn1c(=O)oc2ccc(Cl)cc21 [CCT242918]	

Continued, compound first:

SMILES	average R2, compound at 50 μM (CRBN/DDB1 complex [1])	average R2, compound at 200 μM (CRBN/DDB1 complex [1])	average R2, differences (CRBN/DDB1 complex [1])	pKd (CRBN/DDB1 complex [3]; R2KD assay, Δ39CRBN/ΔBPBDDB1 complex, repeated three times (average), read-out: Kd)	pKd (CRBN/DDB1 complex [3]; [5])	pIC50 (CRBN/DDB1 complex [4])	pKi (CRBN/DDB1 complex [2])
CNC(=O)c1nc(-c2ccccc2)n(-c2ccccc2)n1 [CCT226703]	1.5	1.4	0.1				
N#CCCCN1C(=O)COc2ccc(Cl)cc21 [CCT228155]	3	2.2	0.8		3.10	2.78	
O=CN1CCN(Cc2cccc(Cl)c2)CC1 [CCT240121]	3.8	3.3	0.4				
O=C(c1ccc(F)cc1)N1CCN(c2ccccc2)CC1 [CCT240195]	1.6	1.4	0.2				
COc1ccc(C(=O)N2CCN(c3ccccn3)CC2)cc1 [CCT240246]	1.5	1.3	0.2				
Nc1ccc(C(=O)NCC2COc3ccccc3O2)cc1 (stereo not shown) [CCT240545]	2	1.5	0.5		3.20	< 2.52	
